Source: patent US7157570B2, “Human ribonucleotide reductase M2 subunit” (priority 2002, dated 2007)

How the values were obtained:
KB cells = test: colony-forming assay; type: cell-based, human; details: drug alone (0.1 mM HU or 0.3 μM Gem)
Method: Human oropharyngeal carcinoma KB cells (American Type Culture Collection) were cultured on plastic tissue culture plates in RPMI 1640 supplemented with 10% fetal bovine serum at 37° C. in a humidified atmosphere containing 5% carbon dioxide. […] In all studies, HU was included in the growth medium where indicated at a concentration of 0.1 mM while Gem was provided at a concentration of 0.3 μM.
The colony-forming ability of KB cells treated with HU and/or Gem at varying times was determined. Equal numbers of logarithmically growing cells were treated with HU and/or Gem at the times specified and then plated in 6-well tissue culture dishes as previously described (Zhou et al. (1998) Biochem Pharmaco 55, 1657–1665). The numbers of colonies, consisting of at least 50 cells, for each sample were counted after incubation at 37° C. for 8 generation times.
The colony-forming ability of KB cells treated with HU and/or Gem was assayed using the ID50 concentrations for KB cells. KB cells were exposed to 0.1 mM HU. 0.3 μM Gem was added after 2 to 24 hours of HU treatment, and then cells were assayed for their colony forming ability.

[1] = phase I trial: dose-limiting toxicities and MTD; type: in vivo, human; details: on days 2 and 9; HU 500 mg every 6 h x4 on days 1 and 8
Method: Pregnant female patients were excluded.
Patients received the chemotherapy as outpatients.
Hematologic dose-limiting toxicity (DLT) was defined as a platelet count <75,000/μl on day 8, or a platelet count <25,000/μl lasting seven or more days, an ANC <1,000/μl on day 8 or an ANC <500/μl lasting seven or more days. Hepatic DLT was defined as bilirubin 4.5–6.0 mg/dl or transaminase 8.0–20.0 times normal (grade 3), and bilirubin >6.0 mg/dl or transaminase more than 20.0 times normal (grade 4). Other toxicities were graded according to the NCl Common Toxicity Criteria Version 1.0. Dose escalations and determination of the maximum tolerated dose (MTD) were based on DLT occurring in the first cycle. MTD was defined as the highest dose tested at which none or only one patient experienced DLT when at least six patients were treated at that dose and were evaluable for toxicity. Patients received additional cycles of therapy until unacceptable toxicity required discontinuation of treatment, the patient requested discontinuation, or disease progression occurred.

clinical = test: clinical; parameters: species or system human; details: in vivo
Method: Blood sample were collected in heparinized tubes and kept on ice until plasma could be separated by centrifugation (within 30 min). Plasma was transferred to polypropylene tubes containing tetrahydrouridine to inhibit cytidine deaminase and stored at -70° C. until analysis. […] Detection was performed by UV absorbance at 275 nm. […] The inter- and intra-day coefficient of variation across the entire range of the standard curve were <10%, and the accuracies were ±7%. The lower limit of quantification of the assay was 5 ng/ml. […] Data were fitted to a two-compartment model with first-order elimination.

KBGem clone = details: cited from earlier work

Q: Which “colony formation, % of untreated controls” value (KB cells) does the source give for Nc1ccn([C@@H]2O[C@H](CO)[C@@H](O)C2(F)F)c(=O)n1 [Gemcitabine, gemcitabine] here?
A: approximately 50%

Q: What about the “MTD for gemcitabine in this combination of drugs” value [1] of the same molecule?
A: 750 mg/m^2

Q: And the t1/2 alpha (clinical; human)?
A: 2.4 ± 1.4 min

Q: What about the “variation of CLsys within a single dose level” value (clinical; human) of the same molecule?
A: about 6 fold

Q: And the half-life (clinical; human, t1/2 alpha)?
A: 2.6 ± 1.9 min

Q: What about the half-life (clinical; human, t 1/2 alpha, Mean) of the same molecule?
A: 2.7 min

Q: What about the half-life (clinical; human, t1/2 beta) of the same molecule?
A: 15.2 ± 5.3 min

Q: And the “differences in pharmacokinetic parameters between day 2 and day 9” value (clinical)?
A: no significant differences

Q: What about the “effect of administered dose on CLsys” value (clinical) of the same molecule?
A: no apparent effect

Q: And the “increase in resistance (to Gem)” value (KBGem clone)?
A: 10 fold
